Numbered stars: 1 amine (or outer) side, 2 acyl side, 3 side chain; on linkers, the order of the positions; unused ones are H or OH. Bridge positions count the residues as written; N and C are the ends. Square brackets hold non-standard residues; d marks the D form. Peptide text beside a SMILES is read from it. * marks the point of attachment. ξ: configuration not given here. Orn(4R-OH,5R-OCH2CH2NMe3+) = C[N+](C)(C)CCO[C@@H](N[*:3])[C@H](O)C[C@H](N[*:1])C(=O)[*:2]; pTerphenylCO(4''-OnC5H11) = CCCCCOc1ccc(-c2ccc(-c3ccc(C(=O)*)cc3)cc2)cc1; hTyr(3S-OH,4S-OH) = N[C@H](C(=O)O)[C@H](O)[C@@H](O)c1ccc(O)cc1; X1 = C[C@H]1CN([*:1])C(C(=O)[*:2])C1O; Hyp = O=C(O)[C@@H]1C[C@@H](O)CN1; ξT = CC(O)C(N)C(=O)O
Key:
[1] = tested on: A. fumigatus ATCC 13073; test: Disseminated aspergillosis in neutropenic ICR mice (Example 14), treatment and prophylaxis; assay type: in vivo, Aspergillus fumigatus
Method: Disseminated aspergillosis: ICR mice (6/grp) were made neutropenic by cyclophosphamide on Days −3 (270 mg/kg), +1 and +4 (90 mg/kg). IV infection with A. fumigatus ATCC 13073 (10^4 CFU/mouse) on Day 0. […] Survival monitored for a 10 days. Same model was used for prophylaxis except CD101 was dosed on Days −1, −3 or −5.

[2] = tested on: A. fumigatus (ATCC 13073); test: Disseminated infection of immune competent DBA/2 mice, prophylaxis, survival; assay type: in vivo, Aspergillus fumigatus
Method: A. fumigatus (ATCC 13073) growth was taken from 96 hour potato dextrose agar (PDA) and re-suspended in 0.1% Tween 20. The culture was resuspended in 1 mL cold PBS (>1.0×10^8 CFU/mL, OD620 2.3-2.8). The culture was then diluted in PBS to final cellular densities of 1.0×10^7 CFU/mL. The actual colony counts were determined by plating dilutions on PDA plates to confirm inoculation concentration. The actual inoculum count was 1.30×10^7 CFU/mL.
Groups of 6 immune competent female DBA/2 mice weighing 18±2 g were used. On Day 0, animals were inoculated (0.1 mL/mouse) by intravenous (IV) injection into the tail vein with A. fumigatus (ATCC 13073), 1.30×10^6 CFU per mouse. CD101 at 3, 10 and 30 mg/kg as prophylaxis was administered subcutaneously (SC) once starting 5, 3 or 1 day before inoculation. In addition, CD101 at 3 mg/kg SC and the reference, amphotericin B, at 3 mg/kg by intraperitoneal (IP) injection were administered one hour after infection (See Table 2).
A 50 percent or more (≥50%) increase in the survival rate compared to the vehicle control group indicates significant anti-infective activity. The health observations including body weight, hunched posture, ruffled fur, immobility and hypothermia were recorded daily for 14 days.

[3] = tested on: C. glabrata; test: Neutropenic murine disseminated candidiasis model, PK/PD target determination; assay type: in vivo, Candida glabrata
Method: Infection model. A neutropenic, murine, disseminated candidiasis model was used for the treatment studies. The mice were rendered neutropenic (polymorphonuclear cell count, <100/mm3) by injecting 150 mg/kg of cyclophosphamide (Mead Johnson Pharmaceuticals, Evansville, IN) subcutaneously 4 days before infection, 100 mg/kg of cyclophosphamide 1 day before infection, and additional cyclophosphamide doses (100 mg/kg) on Day 2 and Day 4 after infection to ensure neutropenia throughout the 168 h (7 d) study period. Three mice were included in each treatment and control group.
The organisms were subcultured on SDA plates 24 h prior to infection. The inoculum was prepared by placing 3 to 5 colonies into 5 ml of sterile pyrogen-free 0.15 M NaCl warmed to 35° C. The final inoculum was adjusted to a 0.6 transmittance at 530 nm. The fungal count of the inoculum determined by viable counts on SDA was 6.1±0.2 log10 CFU/ml.
Disseminated infection with the Candida strains was achieved by injection of 0.1 ml of the inoculum via the lateral tail vein 2 h prior to the start of antifungal therapy. At the end of the study period, the animals were sacrificed by CO2 asphyxiation. The kidneys of each mouse were aseptically removed and placed in 0.15 M NaCl at 4° C. The kidneys were homogenized and serially diluted 1:10, and the aliquots were plated onto SDA for viable fungal colony counts after incubation for 24 h at 35° C. The lower limit of detection was 100 CFU/ml. The results are expressed as the mean CFU/kidney for three mice.
Treatment efficacy and pharmacodynamic target determination of CD101. Neutropenic mice were infected with one of 10 Candida strains as described above. […] Five dose levels that varied from 0.25 to 64 mg/kg were administered once in a 0.2-ml volume by IP route for the 168 h study period. Due to enhanced effect against single isolate, additional studies at 0.0156 and 0.0625 mg/kg was examined for C. glabrata 5592. Groups of three mice were used for each dosing regimen and control group. At the end of the treatment period (168 h), the mice were euthanized, and their kidneys were immediately processed for CFU determination as described above.
Data analysis. A sigmoid dose-effect (Hill) model was used to measure the in vivo potency of CD101. The efficacy endpoints included the dose level required to produce a 24 h net static effect (no change in organism burden compared to that at the start of therapy) and the dose required to achieve a 1-log10 reduction in colony counts (relative to the burden at the start of therapy), when achieved. The maximum response (Emax) was measured as the difference in the number of CFU/kidney relative to that of the untreated control animals. The doses associated with the stasis and 1-log10 endpoint for each strain was calculated using the equation: log10 D=[log10 (E/(Emax−E))/N]+log10 ED50, where D is the drug dose, E is the control growth in untreated animals, Emax is the maximal effect, Nis the slope of the dose-response relationship, and ED50 is the dose needed to achieve 50% of the maximal effect. The associated AUC/MIC targets were then calculated for each strain. […] The calculations were performed using both total and free drug concentrations. The coefficient of determination (R^2) was used to estimate the variance that might be due to regression with the PK/PD index. Kruskal-Wallis one-way analysis of variance (ANOVA) was used to determine if the differences in PK/PD targets were significant between the species.

[4] = Median of 3 C. glabrata strains

Structure (SMILES): CCCCCOc1ccc(-c2ccc(-c3ccc(C(=O)N[C@H]4C[C@@H](O)[C@@H](OCC[N+](C)(C)C)NC(=O)C5C(O)[C@@H](C)CN5C(=O)[C@H]([C@@H](C)O)NC(=O)[C@H]([C@H](O)[C@@H](O)c5ccc(O)cc5)NC(=O)[C@@H]5C[C@@H](O)CN5C(=O)C(C(C)O)NC4=O)cc3)cc2)cc1 (stereo partly drawn) [CD101] ({pTerphenylCO(4''-OnC5H11)}-[Orn(4R-OH,5R-OCH2CH2NMe3+)][ξT][Hyp][hTyr(3S-OH,4S-OH)]T[X1]; lactam 1-C)
- survival ([1]; prophylaxis): 100%
- survival ([1]; prophylaxis, single 5 mg/kg given up to 5 days prior to infection): improved survival depending on day given
- survival ([1]; treatment, IV/IP at 0.2, 1 or 5 mg/kg BID×5 d, vs vehicle): significant increase in survival compared to vehicle
- survival ([1]; treatment, single 2 mg/kg vs 0.2 mg/kg BID×5 d): Survival was comparable
- 14-day survival ([2]; 3 mg/kg SC 1 hour after infection): significant increase in the 14-day survival
- symptoms of infection (body weight, hunched posture, ruffled fur, immobility, hypothermia) ([2]; 3, 10 and 30 mg/kg SC on Day −5, −3 and −1): improved
- increase in the 14-day survival compared to the vehicle group ([2]; SC: 3 mg/kg Day −1, 10 mg/kg Day −5, −3, −1, 30 mg/kg Day −5, −3, −1): 50%
- 1 log kill 24 h Ave Free drug AUC/MIC [3]; 5592: 0.36
- 1 log kill free drug AUC0-168 h/MIC [3]; 5592: 2.54
- 1 log kill total drug AUC0-168 h/MIC [3]; 5592: 317.50
- Stasis 24 h Ave free drug AUC/MIC [3]; 5592: 0.05
- Stasis free drug AUC0-168 h/MIC [3]; 5592: 0.35
- Stasis total drug AUC0-168 h/MIC [3]; 5592: 43.16
- 1 log kill dose ([3]; 5592, single IP dose, 168 h): 0.43 mg/kg
- Static dose ([3]; 5592, single IP dose, 168 h): 0.06 mg/kg
- 1 log kill 24 h Ave Free drug AUC/MIC [3]; 10956: 1.20
- 1 log kill free drug AUC0-168 h/MIC [3]; 10956: 8.42
- 1 log kill total drug AUC0-168 h/MIC [3]; 10956: 1052.22
- Stasis 24 h Ave free drug AUC/MIC [3]; 10956: 0.48
- Stasis free drug AUC0-168 h/MIC [3]; 10956: 3.35
- Stasis total drug AUC0-168 h/MIC [3]; 10956: 418.68
- 1 log kill dose ([3]; 10956, single IP dose, 168 h): 17.25 mg/kg
- Static dose ([3]; 10956, single IP dose, 168 h): 6.29 mg/kg
- 1 log kill 24 h Ave Free drug AUC/MIC [3]; 35315: 0.42
- 1 log kill free drug AUC0-168 h/MIC [3]; 35315: 2.94
- 1 log kill total drug AUC0-168 h/MIC [3]; 35315: 367.06
- Stasis 24 h Ave free drug AUC/MIC [3]; 35315: 0.07
- Stasis free drug AUC0-168 h/MIC [3]; 35315: 0.50
- Stasis total drug AUC0-168 h/MIC [3]; 35315: 62.50
- 1 log kill dose ([3]; 35315, single IP dose, 168 h): 2.39 mg/kg
- Static dose ([3]; 35315, single IP dose, 168 h): 0.34 mg/kg
- 1 log kill 24 h Ave Free drug AUC/MIC ([3]; Mean of 3 C. glabrata strains): 0.66
- 1 log kill dose ([3]; Mean of 3 C. glabrata strains): 6.69 mg/kg
- 1 log kill free drug AUC0-168 h/MIC ([3]; Mean of 3 C. glabrata strains): 4.63
- 1 log kill total drug AUC0-168 h/MIC ([3]; Mean of 3 C. glabrata strains): 578.93
- Stasis 24 h Ave free drug AUC/MIC ([3]; Mean of 3 C. glabrata strains): 0.20
- Stasis free drug AUC0-168 h/MIC ([3]; Mean of 3 C. glabrata strains): 1.40
- Stasis total drug AUC0-168 h/MIC ([3]; Mean of 3 C. glabrata strains): 174.78
- Static dose ([3]; Mean of 3 C. glabrata strains): 2.23 mg/kg
- 1 log kill 24 h Ave Free drug AUC/MIC [3, 4]: 0.42
- 1 log kill dose [3, 4]: 2.39 mg/kg
- 1 log kill free drug AUC0-168 h/MIC [3, 4]: 2.94
- 1 log kill total drug AUC0-168 h/MIC [3, 4]: 367.06
- Stasis 24 h Ave free drug AUC/MIC [3, 4]: 0.07
- Stasis free drug AUC0-168 h/MIC [3, 4]: 0.5
- Stasis total drug AUC0-168 h/MIC [3, 4]: 62.50
- Static dose [3, 4]: 0.34 mg/kg
- kill at high doses ([3]; a number of strains, kidney burden, 168 h): > 2 log10
- free AUC/MIC targets lower than the three comparator echinocandins ([3]; in vivo): > 10 fold
